Experimental data taken from patent US8729054B2, “3-desoxy-2-methylene-vitamin D analogs and their uses” (Wisconsin Alumni Research Foundation, priority 2011, dated 2014).
“Also recorded” adds a separate entry of the source.

What was measured:
[1] = system: vitamin D-deficient rats; experiment: Bone calcium mobilization (serum calcium); assay type: in vivo, rat; conditions: for bone calcium mobilization activity as compared to 1,25(OH)2D3: rats on low calcium diet (0.02%), four consecutive ip doses
Procedure: (§1) Male, weanling Sprague-Dawley rats were placed on Diet 11 (Suda et al, J. Nutr. 100:1049, 1970) (0.47% Ca)+vitamins AEK for one week followed by Diet 11 (0.02% Ca)+vitamins AEK for 3 weeks. The rats were then switched to the same diet containing 0.47% Ca for one week followed by two weeks on the same diet containing 0.02% Ca. Dose administration began during the last week on 0.02% calcium diet. Four consecutive ip doses were given approximately 24 hours apart. Twenty-four hours after the last dose, blood was collected from the severed neck and the concentration of serum calcium determined by atomic absorption spectrometry as a measure of bone calcium mobilization. The first 10 cm of the intestine was also collected for intestinal calcium transport analysis using the everted gut sac method.

[2] = system: Human promyelocytic leukemia (HL60) cells; experiment: HL-60 differentiation (nitro blue tetrazolium reduction); assay type: cell-based; conditions: for EC50: HL60 cells, four days after treatment, NBT reduction
Procedure: The study drugs were dissolved in ethanol and the concentrations determined using UV spectrophotometry. Serial dilutions were prepared so that a range of drug concentrations could be tested without changing the final concentration of ethanol (≦0.2%) present in the cell cultures.
Human promyelocytic leukemia (HL60) cells were grown in RPMI-1640 medium containing 10% fetal bovine serum. The cells were incubated at 37° C. in the presence of 5% CO2.
HL60 cells were plated at 1.2×10^5 cells/ml. Eighteen hours after plating, cells in duplicate were treated with drug. Four days later, the cells were harvested and a nitro blue tetrazolium reduction assay was performed (Collins et al., 1979; J. Exp. Med. 149:969-974). The percentage of differentiated cells was determined by counting a total of 200 cells and recording the number that contained intracellular black-blue formazan deposits. Verification of differentiation to monocytic cells was determined by measuring phagocytic activity (data not shown).

[3] = molecular target: T1, full-length recombinant rat vitamin D receptor (Rattus norvegicus, UniProt P13053); experiment: Vitamin D receptor binding, competition with [3H]-1,25(OH)2D3; conditions: full-length recombinant rat VDR; for Ki: 1 nM radioligand
T1 construct: Full-length recombinant rat receptor was expressed in E. coli BL21 (DE3) Codon Plus RIL cells; histidine tag (C); made in house; host or cells: E. coli BL21 (DE3) Codon Plus RIL
T1 sequence (P13053 1-423): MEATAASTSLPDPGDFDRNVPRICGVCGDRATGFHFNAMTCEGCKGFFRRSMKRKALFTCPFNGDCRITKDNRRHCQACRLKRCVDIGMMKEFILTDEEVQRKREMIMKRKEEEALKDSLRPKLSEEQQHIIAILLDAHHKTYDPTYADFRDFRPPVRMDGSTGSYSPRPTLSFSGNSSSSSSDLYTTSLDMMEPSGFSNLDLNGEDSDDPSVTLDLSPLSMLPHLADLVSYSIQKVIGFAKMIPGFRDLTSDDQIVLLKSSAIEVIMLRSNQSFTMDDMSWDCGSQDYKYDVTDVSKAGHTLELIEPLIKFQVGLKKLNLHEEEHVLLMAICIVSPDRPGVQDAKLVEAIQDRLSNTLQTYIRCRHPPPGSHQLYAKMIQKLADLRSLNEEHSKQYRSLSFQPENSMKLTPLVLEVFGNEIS
Procedure: Full-length recombinant rat receptor was expressed in E. coli BL21 (DE3) Codon Plus RIL cells and purified to homogeneity using two different column chromatography systems. The first system was a nickel affinity resin that utilizes the C-terminal histidine tag on this protein. The protein that was eluted from this resin was further purified using ion exchange chromatography (S-Sepharose Fast Flow). Aliquots of the purified protein were quick frozen in liquid nitrogen and stored at −80° C. until use. For use in binding assays, the protein was diluted in TEDK50 (50 mM Tris, 1.5 mM EDTA, pH 7.4, 5 mM DTT, 150 mM KCI) with 0.1% Chaps detergent. The receptor protein and ligand concentration was optimized such that no more than 20% of the added radiolabeled ligand was bound to the receptor.
Radiolabeled and unlabeled ligands were added to 100 mcl of the diluted protein at a final ethanol concentration of ≦10%, mixed and incubated overnight on ice to reach binding equilibrium. The following day, 100 mcl of hydroxylapatite slurry (50%) was added to each tube and mixed at 10-minute intervals for 30 minutes. The hydroxylapaptite was collected by centrifugation and then washed three times with Tris-EDTA buffer (50 mM Tris, 1.5 mM EDTA, pH 7.4) containing 0.5% Titron X-100. After the final wash, the pellets were transferred to scintillation vials containing 4 ml of Biosafe II scintillation cocktail, mixed and placed in a scintillation counter. Total binding was determined from the tubes containing only radiolabeled ligand.

[4] = system: 24-hydroxylase (24Ohase) gene promoter; experiment: In vitro transcription assay, luciferase reporter in ROS 17/2.8 (bone) cells; assay type: cell-based; conditions: for transcriptional activity in bone cells as compared to 1α,25-dihydroxyvitamin D3: 24-hydroxylase gene; for EC50: ROS 17/2.8 cells, luciferase, sixteen hours after dosing, read-out: EC50, transcriptional activity in bone cells (24-hydroxylase gene)
Procedure: Transcription activity was measured in ROS 17/2.8 (bone) cells that were stably transfected with a 24-hydroxylase (24Ohase) gene promoter upstream of a luciferase reporter gene (Arbour et al., 1998). Cells were given a range of doses. Sixteen hours after dosing the cells were harvested and luciferase activities were measured using a luminometer. RLU=relative luciferase units.

[5] = system: vitamin D-deficient rats; experiment: Intestinal calcium transport (everted gut sac method); assay type: in vivo, rat; conditions: rats on low calcium diet (0.02%), four consecutive ip doses
Procedure: as §1

SMILES	serum calcium levels ([1]; at the dosages tested)	EC50 [2] [nM]	affinity to the receptor as compared to 1,25(OH)2D3 [3]	Ki [3] [nM]	mobilization of bone calcium as compared to native hormone at the same dose ([1]; 87 pmol/day for 4 consecutive days)	bone calcium mobilization activity as compared to 1,25(OH)2D3 [1]	transcriptional activity in bone cells as compared to 1α,25-dihydroxyvitamin D3 [4]	EC50 [4] [nM]	potency on HL-60 cell differentiation as compared to 1,25(OH)2D3 [2]	EC50 ([2]; Homo sapiens, HL-60, 96 h) [nM]	intestinal calcium transport activity as compared to 1,25(OH)2D3 [5]	mobilization of bone calcium as compared to native hormone at the same dose ([1]; 780 pmol/day for 4 consecutive days)	potency on HL-60 cell differentiation relative to 1,25(OH)2D3 ([2]; compared with 1,25(OH)2D3)
C=C1/C(=C\C=C2/CCC[C@]3(C)[C@@H]([C@H](C)CCCC(C)(C)O)CC[C@@H]23)C[C@@H](O)C[C@@H]1O [1α,25-dihydroxyvitamin D3, reference compound]	increased serum calcium levels	3	–	–	–	–	–	–	–	–	–	–	–
C=C1CC/C(=C/C=C2\CCC[C@]3(C)[C@@H]([C@H](C)CCCC(C)(C)O)CC[C@@H]23)C(=C)[C@H]1O [3D-QM, (20R)-3-desoxy-1α,25-dihydroxy-2-methylene-vitamin D3]	–	–	about the same affinity	0.4	only slightly less mobilization of bone calcium than the native hormone	about the same potency as the native hormone	about the same transcriptional activity	0.2	about the same potency as 1,25(OH)2D3	1	–	–	–
C=C1CC/C(=C/C=C2\CCC[C@]3(C)[C@@H]([C@@H](C)CCCC(C)(C)O)CC[C@@H]23)C(=C)[C@H]1O [3D-QMS, (20S)-3-desoxy-1α,25-dihydroxy-2-methylene-vitamin D3]	–	–	about the same affinity	0.3	–	more potent than the native hormone; also recorded: significantly more activity in mobilizing calcium from bone than 1,25(OH)2D3	about the same transcriptional activity	0.03	–	0.08	more potent than 1,25(OH)2D3	higher mobilization of bone calcium than the native hormone	about 40 times
